For orientation: AUC means concentration integrated over time. As usually defined, the CL/F is clearance divided by bioavailability, as obtained after extravascular dosing. For orientation: EC50 means the midpoint of the concentration-response curve. Higher therefore signals weaker potency.

The source of these data is ChEMBL document CHEMBL1649474, “Pharmacodynamics of levofloxacin in a murine pneumonia model of Pseudomonas aeruginosa infection: determination of epithelial lining fluid targets” (Antimicrob Agents Chemother, 2009).

The nature of series [1]: Drug uptake in epithelial lining fluid of Swiss-Webster mouse infected with Pseudomonas aeruginosa at 200 mg/kg, ip administered as single dose. More on the design: dose 200 mg/kg, route intraperitoneal. To be noted: in vivo. Type of series: ADME, organism-based.
A short description of series [2]: Absorption rate constant in epithelial lining fluid of Swiss-Webster mouse infected with Pseudomonas aeruginosa at 200 mg/kg, ip administered as single dose. The series is classed as ADME, organism-based. More on the design: dose 200 mg/kg, route intraperitoneal. Particulars: in vivo.
A short description of series [3]: AUC in epithelial lining fluid of Swiss-Webster mouse infected with Pseudomonas aeruginosa at 200 mg/kg, ip administered as single dose. The series is classed as ADME, organism-based. More on the design: dose 200 mg/kg, route intraperitoneal.
A short description of series [4]: AUC in plasma of Swiss-Webster mouse infected with Pseudomonas aeruginosa at 200 mg/kg, ip administered as single dose. Type of series: ADME, organism-based. More on the design: dose 200 mg/kg, route intraperitoneal.
A short description of series [5]: Apparent clearance in epithelial lining fluid of Swiss-Webster mouse infected with Pseudomonas aeruginosa at 200 mg/kg, ip administered as single dose.
A short description of series [6]: Apparent volume of distribution with respect to bioavailability in epithelial lining fluid of Swiss-Webster mouse infected with Pseudomonas aeruginosa at 200 mg/kg, ip administered as single dose. Type of series: ADME, organism-based. Particulars: read-out: Vc/F.
Another series has as its system Pseudomonas aeruginosa. Nature of the series: Antimicrobial activity against Pseudomonas aeruginosa infected in Swiss-Webster mouse at 200 mg/kg, ip administered as single dose. Type of series: functional, organism-based. Also noted: dose 200 mg/kg, route intraperitoneal.
Series [7] is described as follows: Volume of distribution in epithelial lining fluid of Swiss-Webster mouse infected with Pseudomonas aeruginosa at 200 mg/kg, ip administered as single dose. The series is classed as ADME, organism-based. Also noted: dose 200 mg/kg, route intraperitoneal. Particulars: in vivo.

`C[C@H]1COc2c(N3CCN(C)CC3)c(F)cc3c(=O)c(C(=O)O)cn1c23.C[C@H]1COc2c(N3CCN(C)CC3)c(F)cc3c(=O)c(C(=O)O)cn1c23.O` [LEVOFLOXACIN]: in series [1], the Drug uptake is 77.7%. The compound further returned a Ka in series [2] of 7.81 h⁻¹. In addition, the figures for the exposure (AUC) in series [3] and in series [4] were 49800 ng·h/mL and 64000 ng·h/mL, respectively. Besides, in series [5], the CL/F is 1.3 mL/min. In addition, the Vd/F in series [6] worked out at 0.044 L. The compound also came in with an EC50 with Pseudomonas aeruginosa of 3.15 µg/mL. In series [7], this compound came in with a Vd of 0.024 L.
